ED50, Inhibition and IC50 data for one compound are collected here from ChEMBL document CHEMBL1125472, “5-lipoxygenase: properties, pharmacology, and the quinolinyl(bridged)aryl class of inhibitors” (J Med Chem, 1992).

Experiment [1] is filed under the species Mus musculus. Description: The effective dose which inhibits […](AA) and tetradecanoylphorbol acetate(TPA) induced inflammation. Type of experiment: functional.
The species named for a further experiment is Cavia porcellus. Description: The effective dose which inhibits UVB-induced guinea pig skin erythema. Type of experiment: functional.
The species entered for experiment [2] is Mus musculus. Description: The effective dose which inhibits […] induced contact hypersensitivity in mouse ears. Type of experiment: functional.
For experiment [3], the species on record is Mus musculus. Description: Compound was tested for tetradecanoylphorbol acetate (TPA) induced inflammation at concentration of 1 mg/ear in mouse. The experiment is classed as functional.
Experiment [4] addresses T1, Polyunsaturated fatty acid 5-lipoxygenase (Mus musculus, UniProt P48999).
T1 sequence (P48999 whole entry): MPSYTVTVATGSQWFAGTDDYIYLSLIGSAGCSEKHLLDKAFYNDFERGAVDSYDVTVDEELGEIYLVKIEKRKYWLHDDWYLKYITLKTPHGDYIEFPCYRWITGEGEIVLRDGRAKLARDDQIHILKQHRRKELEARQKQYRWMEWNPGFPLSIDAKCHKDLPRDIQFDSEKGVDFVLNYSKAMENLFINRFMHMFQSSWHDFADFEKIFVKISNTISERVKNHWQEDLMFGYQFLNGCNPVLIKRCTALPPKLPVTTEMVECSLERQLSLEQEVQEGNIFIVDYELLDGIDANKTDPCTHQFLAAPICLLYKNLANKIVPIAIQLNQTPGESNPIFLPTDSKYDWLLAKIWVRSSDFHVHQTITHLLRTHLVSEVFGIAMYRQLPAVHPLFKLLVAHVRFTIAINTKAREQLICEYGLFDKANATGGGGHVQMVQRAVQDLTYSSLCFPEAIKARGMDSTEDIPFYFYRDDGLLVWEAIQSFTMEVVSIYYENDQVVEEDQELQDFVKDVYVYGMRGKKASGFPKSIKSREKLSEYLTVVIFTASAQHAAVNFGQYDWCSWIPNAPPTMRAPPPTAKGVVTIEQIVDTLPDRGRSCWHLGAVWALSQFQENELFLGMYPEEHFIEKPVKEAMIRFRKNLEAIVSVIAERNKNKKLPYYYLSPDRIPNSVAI
Put plainly: The compound was tested for inhibitory activity against 5-lipoxygenase in mouse macrophages.

Experiment [5] concerns the target T2, Polyunsaturated fatty acid 5-lipoxygenase (Rattus norvegicus, UniProt P12527).
T2 sequence (P12527 whole entry): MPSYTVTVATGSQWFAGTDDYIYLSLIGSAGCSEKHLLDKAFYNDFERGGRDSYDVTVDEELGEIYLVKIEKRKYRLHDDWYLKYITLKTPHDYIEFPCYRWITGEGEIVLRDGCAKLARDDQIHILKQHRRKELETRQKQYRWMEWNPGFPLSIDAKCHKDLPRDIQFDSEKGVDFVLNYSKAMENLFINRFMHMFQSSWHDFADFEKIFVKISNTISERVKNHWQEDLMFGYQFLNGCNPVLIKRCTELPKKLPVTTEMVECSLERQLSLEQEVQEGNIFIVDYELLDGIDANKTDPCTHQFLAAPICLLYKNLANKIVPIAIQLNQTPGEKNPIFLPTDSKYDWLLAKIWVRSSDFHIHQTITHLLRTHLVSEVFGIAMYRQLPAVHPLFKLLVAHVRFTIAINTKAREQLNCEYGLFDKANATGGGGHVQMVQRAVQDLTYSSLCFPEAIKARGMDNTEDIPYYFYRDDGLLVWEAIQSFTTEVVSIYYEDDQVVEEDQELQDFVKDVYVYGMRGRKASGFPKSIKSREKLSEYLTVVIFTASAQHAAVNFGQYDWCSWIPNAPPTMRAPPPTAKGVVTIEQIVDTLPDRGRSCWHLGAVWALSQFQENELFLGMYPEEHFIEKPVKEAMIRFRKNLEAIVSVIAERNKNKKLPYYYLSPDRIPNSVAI
Description: The compound was tested for inhibitory activity against 5-lipoxygenase in rat polymorphonuclear leukocytes[PMNS]. The experiment is classed as cell-based.

Experiment [6] addresses T3, Prostaglandin G/H synthase (cyclooxygenase) (Mus musculus, UniProt P22437+Q05769).
T3 sequence (P22437 whole entry): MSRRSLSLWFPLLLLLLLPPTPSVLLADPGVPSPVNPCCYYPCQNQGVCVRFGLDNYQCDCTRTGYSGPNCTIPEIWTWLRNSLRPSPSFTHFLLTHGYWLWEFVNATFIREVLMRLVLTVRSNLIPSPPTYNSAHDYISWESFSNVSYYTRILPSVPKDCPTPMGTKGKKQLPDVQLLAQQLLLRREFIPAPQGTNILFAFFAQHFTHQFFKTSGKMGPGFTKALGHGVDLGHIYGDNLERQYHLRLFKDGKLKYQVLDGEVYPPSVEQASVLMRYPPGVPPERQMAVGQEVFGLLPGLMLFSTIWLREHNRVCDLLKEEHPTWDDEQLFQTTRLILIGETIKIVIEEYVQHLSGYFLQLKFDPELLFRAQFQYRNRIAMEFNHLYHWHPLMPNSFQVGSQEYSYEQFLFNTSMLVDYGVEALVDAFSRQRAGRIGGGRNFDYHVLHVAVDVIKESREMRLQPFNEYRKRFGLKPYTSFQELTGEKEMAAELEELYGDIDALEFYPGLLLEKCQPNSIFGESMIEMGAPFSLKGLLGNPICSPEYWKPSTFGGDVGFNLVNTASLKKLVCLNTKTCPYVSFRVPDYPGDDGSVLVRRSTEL
T3 sequence (Q05769 whole entry): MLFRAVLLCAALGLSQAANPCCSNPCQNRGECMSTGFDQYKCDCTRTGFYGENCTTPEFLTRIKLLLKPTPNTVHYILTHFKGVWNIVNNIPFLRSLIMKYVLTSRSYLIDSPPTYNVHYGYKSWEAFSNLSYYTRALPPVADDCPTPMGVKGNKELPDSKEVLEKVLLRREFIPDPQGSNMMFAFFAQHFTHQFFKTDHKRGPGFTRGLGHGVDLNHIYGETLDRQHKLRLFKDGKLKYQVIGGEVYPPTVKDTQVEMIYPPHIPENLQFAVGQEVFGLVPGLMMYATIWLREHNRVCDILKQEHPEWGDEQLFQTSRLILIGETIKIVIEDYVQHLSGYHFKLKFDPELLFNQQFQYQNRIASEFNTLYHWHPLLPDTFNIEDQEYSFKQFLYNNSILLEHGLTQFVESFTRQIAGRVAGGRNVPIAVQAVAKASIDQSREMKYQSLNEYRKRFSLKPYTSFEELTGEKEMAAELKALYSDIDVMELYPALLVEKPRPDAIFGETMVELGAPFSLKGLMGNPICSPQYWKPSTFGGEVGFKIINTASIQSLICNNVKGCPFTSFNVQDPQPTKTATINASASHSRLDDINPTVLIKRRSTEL
Description: The compound was tested for inhibitory activity against cyclooxygenase in mouse macrophages. The experiment is classed as protein assay.

Experiment [7] has as its target T4, Polyunsaturated fatty acid 5-lipoxygenase (Rattus norvegicus) (UniProt P12527).
T4 sequence (whole entry): T2 sequence (P12527 whole entry)
Description: The compound was tested for inhibition of 5-lipoxygenase translocation in SAR in rat RBL-2H3 cells. The experiment is classed as cell-based.

For `c1ccc2nc(COc3cccc4ccccc34)ccc2c1`, the results for the ED50 in the experiment listed under Mus musculus [1], in the experiment filed under Cavia porcellus and in the experiment filed under Mus musculus [2] were 0.3 mg ear-1, 0.25 mg/spot and 0.4 mg ear-1, respectively. For the same compound, the Inhibition was 40% in the experiment filed under Mus musculus [3] and 500 nM in experiment [7]. Moreover, the IC50 (commonly the point on the concentration scale where inhibition reaches its midpoint) was 200 nM in experiment [4], 400 nM in experiment [5] and 44000 nM in experiment [6].
